Assay results reported in PubChem BioAssay (NCI).
Values joined by “and” are separate entries in the source; they are usually repeats but may differ in a detail not shown here. Identical values can stand only once.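 Tested at 5 concentrations; 48 h exposure; 96-well plates; endpoints linearly interpolated, else capped at highest concentration. At the GI50, growth is halved. TGI denotes the concentration required for complete inhibition of growth.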

Legend:
Assay in all cases: NCI anticancer screen, dose series, 48 h
MCF7 breast = tested on: MCF7 breast
SF-295 CNS = tested on: SF-295 CNS
ACHN renal = tested on: ACHN renal
OVCAR-3 ovarian = tested on: OVCAR-3 ovarian
HCC-2998 colon = tested on: HCC-2998 colon
T-47D breast = tested on: T-47D breast
MALME-3M melanoma = tested on: MALME-3M melanoma
MDA-N = tested on: MDA-N
NCI-H23 lung = tested on: NCI-H23 lung
MDA-MB-435 = tested on: MDA-MB-435

Structure (SMILES)	TGI (MCF7 breast)	TGI (SF-295 CNS)	TGI (ACHN renal)	TGI (OVCAR-3 ovarian)	TGI (HCC-2998 colon)	TGI (T-47D breast)	TGI (MALME-3M melanoma)	TGI (MDA-N)	TGI (NCI-H23 lung)	TGI (MDA-MB-435)	GI50 (MCF7 breast) [µM]	GI50 (SF-295 CNS) [µM]	GI50 (ACHN renal) [µM]	GI50 (OVCAR-3 ovarian) [µM]	GI50 (HCC-2998 colon) [µM]	GI50 (T-47D breast) [µM]	GI50 (MALME-3M melanoma) [µM]	GI50 (MDA-N) [µM]	GI50 (NCI-H23 lung) [µM]	GI50 (MDA-MB-435) [µM]
CC(C)OC(=O)OCSc1ccccc1N=Cc1cccc([N+](=O)[O-])c1	> 10 µM	> 10 µM	> 10 µM	> 10 µM	> 10 µM	> 10 µM	> 10 µM	> 10 µM	> 10 µM	> 10 µM										
CC1(C)[C@H]2CC[C@@]13C(=O)N1C(=O)O[C@@H]([C@H]1Cl)C(Cl)(COCc1ccccc1)C(=O)OCCO[C@H]3C2 (stereo not given in full)	> 100 µM	> 100 µM	> 100 µM	> 100 µM	> 100 µM	> 100 µM	> 100 µM	> 100 µM	> 100 µM	> 100 µM										
COc1ccc(-c2cc(-c3ccccc3)[nH]c(=S)c2C#N)cc1	> 100 µM	> 100 µM	> 100 µM	38.3 µM	> 100 µM	94.3 µM	> 100 µM	> 100 µM	52.3 µM	42.8 µM										
Cc1c2c(OCC3CCCCO3)nn(C)c(=O)c2c(C)n1-c1ccccc1 (stereo not given)	30.3 µM	31.4 µM	31.1 µM	33.3 µM	29.4 µM	70.3 µM	33.1 µM	35.8 µM	44.2 µM	37.4 µM										
Cc1cnc2c(c1)C(=O)C1=C(C2=O)C2OC(=O)CC2OC1(C)C (stereo not given)	0.363 µM	2.68 µM	0.39 µM	0.153 µM	0.822 µM	1.42 µM	0.191 µM	0.865 µM	0.986 µM	0.912 µM										
COc1c(O)c2c(=O)cc(OC)c3c4c(OC)cc(=O)c5c(O)c(OC)c6c(c(c1C(C(C)O)C6C(C)O)c23)c54 (stereo not given)	4.04 µM	1.97 µM	2.93 µM	2.66 µM	1.65 µM	8.33 µM	2.75 µM	3.96 µM	3.71 µM	5.44 µM										
C\C(=N/N=C1/C(=C\N(C)C)C(=O)NC(=O)N1C)c1ccc(Cl)cc1	> 100 µM	> 100 µM	> 100 µM	> 100 µM	> 100 µM	> 100 µM	> 100 µM	> 100 µM	> 100 µM	> 100 µM										
COC(=O)C1=Nc2c(C)nn(-c3ccccc3)c2N=C(c2ccccc2)C1	> 10 µM	> 10 µM	> 10 µM	> 10 µM	> 10 µM	> 10 µM	> 10 µM	> 10 µM	> 10 µM	> 10 µM										
O=[N+]([O-])c1ccc2c(c1)C1=NN(c3ccccc3)C(c3ccccc3Br)C1CCC2 (stereo not given)	> 50 µM	> 50 µM	> 50 µM	> 50 µM	> 50 µM	47.3 µM	> 50 µM	> 50 µM	> 50 µM	> 50 µM										
COc1cc2c(cc1Cc1c(F)cccc1Cl)nc(-c1c(F)cccc1Cl)n2Cc1c(F)cccc1Cl	> 100 µM	41.3 µM	> 100 µM	> 100 µM	76.7 µM	59.5 µM	79.9 µM	> 100 µM	> 100 µM	> 100 µM										
O=C(Nc1noc(-c2ccccc2)n1)c1ccccc1CNc1noc(-c2ccccc2)n1	> 100 µM	> 100 µM	> 100 µM	> 100 µM	> 100 µM	> 100 µM	> 100 µM	> 100 µM	> 100 µM	> 100 µM										
NC(=O)N/N=C1\CC2C3CC4C2C4C13 (stereo not given)	> 100 µM	> 100 µM	> 100 µM	> 100 µM	> 100 µM	> 100 µM	> 100 µM	> 100 µM	> 100 µM	> 100 µM										
Oc1[nH]c2ccccc2c1N=NC(=S)Nc1ccc(Cl)cc1	> 100 µM	> 100 µM	> 100 µM	> 100 µM	> 100 µM	> 100 µM	54.7 µM	> 100 µM	> 100 µM	> 100 µM										
CC(=O)c1ccc2c(c1)CC1(C2)Cc2ccccc2C1=O (stereo not given)	> 100 µM	> 100 µM	> 100 µM	> 100 µM	> 100 µM	> 100 µM	> 100 µM	> 100 µM	> 100 µM	> 100 µM										
COC1=C(C)C(=O)c2c(c(COC(N)=O)c3n2CC(OC(C)=O)C3OC(C)=O)C1=O (stereo not given)	1.23 µM	0.657 µM	1.03 µM	0.416 µM	0.262 µM	3.11 µM	0.156 µM	0.29 µM	0.25 µM	0.415 µM										
[O-]/[N+](=C\c1ccccc1OC(=S)S)c1ccc(Cl)cc1	64.8 µM	> 100 µM	> 100 µM	> 100 µM	> 100 µM	88.2 µM	> 100 µM	> 100 µM	> 100 µM	47.3 µM										
C#CCN(Cc1ccc2nc(OC)c(OC)nc2c1)c1cc(OC)c(OC)c(OC)c1	> 66 µM	> 100 µM	> 100 µM	> 100 µM	> 100 µM	> 100 µM	83.8 µM	45.5 µM	46.2 µM	74.7 µM										
COCCOCCOC1=CC(=O)c2c(O)ccc(O)c2C1=O	2.88 µM	3.23 µM	2.99 µM	2.75 µM	3.51 µM	3.48 µM	0.399 µM	0.289 µM	3.23 µM	0.108 µM										
COC(=O)/C(C#N)=C(/NCCN)Nc1ccccc1	> 100 µM	> 100 µM	> 100 µM	> 100 µM	> 100 µM	> 100 µM	> 100 µM	> 100 µM	> 100 µM	> 100 µM										
C=C(CN(C)C)C(=O)c1ccccc1[N+](=O)[O-]	31.1 µM and 24.5 µM	50.7 µM and 32.9 µM	29.5 µM and 14.8 µM	37 µM and 40.7 µM	> 56.5 µM and 29.2 µM	18.6 µM and 28.6 µM	20.2 µM and 21.1 µM	27.9 µM and 25.3 µM	32.7 µM and 66.1 µM	29.7 µM and 15.9 µM	5.02	17.7	3.79	14.7	15.3	5.68	4.74	10.6	20.7	3.86
CCOC(=O)/C=C(\C(=O)OCC)n1ccc(=O)n(Cc2cn(COCCOC(C)=O)nn2)c1=O	35.1 µM	> 100 µM	17.3 µM	48 µM	30.2 µM	55.8 µM	30.6 µM	> 100 µM	32.6 µM	37 µM										
N#Cc1nc(C2CCC2)oc1N	> 100 µM	> 100 µM	> 100 µM	> 100 µM	> 100 µM	> 100 µM	> 100 µM	> 100 µM	> 100 µM	> 100 µM										
CC(=O)c1cnc2oc3ccc(O)cc3c2c1-c1ccccc1	> 100 µM	> 100 µM	> 100 µM	82.6 µM	> 100 µM	80.4 µM	81.2 µM	> 100 µM	> 100 µM	> 100 µM										
